{"source": "patent US8163805B2", "about": "“Small molecule antagonists of Bcl-2 family proteins” (The Regents of the University of Michigan, priority 2001, dated 2012)", "key": {"UM-SCC-6 [1]": {"system": "UM-SCC-6", "experiment": "6-day MTT cell growth, UM-SCC-6", "assay_type": "cell-based, human", "settings": "read-out: IC50, inhibition of cell growth", "procedure": "(§1) UM-SCC and human fibroblast cell lines were continuously exposed to varying concentrations of (−)-gossypol in 6-day MTT cell survival assays. Control wells contained media (DMEM) with vehicle alone. For each data point n=5.\n(§2) Ten squamous cell carcinoma cell lines established at the University of Michigan (UM-SCC) and three human fibroblast lines were grown in Dulbecco's modified Eagle's medium (DMEM) supplemented with 10% fetal bovine serum. UM-SCC cell lines originated from the larynx (n=2; UM-SCC-12, -23), oral cavity/oropharynx (n=5; UM-SCC-1, -6, -14A, -74B, -81B), hypopharynx (n=1; UM-SCC-22A) and metastases from laryngeal cancers (n=2; UM-SCC-17B, -25). Human fibroblast cell lines originated from surgical specimens (fibroblast cell lines 2 and 3) and neonatal foreskin samples (fibroblast cell line 1).\n(§3) Logarithmically growing cell lines were cultured, washed, counted, and plated at 5,000-15,000 cells per well in duplicate wells of 96-well plates and incubated in DMEM overnight. […] The MTT assay measures cell survival based on mitochondrial conversion of MTT from a soluble tetrazolium salt into an insoluble colored formazan precipitate, which is dissolved in dimethyl sulfoxide and quantitated by spectrophotometry. […] Percent absorbance relative to control was plotted as a linear function of drug concentration."}, "fibroblast cell lines": {"system": "fibroblast cell lines", "experiment": "Flow cytometric TUNEL apoptosis assay, fibroblast cell lines", "assay_type": "cell-based, human", "settings": "10 μM, 48-hour", "procedure": "(§4) Briefly, FIGS. 24A-24C show apoptosis after (−)-gossypol as measured by a fluorescent flow cytometric TUNEL assay. Open peaks represent BrdU labeling of untreated cells. Shaded peaks indicate BrdU labeling of cell populations following 48-hour treatment with 10 μM (−)-gossypol; FIG. 24A, UM-SCC-cell lines with wild type p53; FIG. 24B, UM-SCC-cell lines with mutant p53; and FIG. 24C normal fibroblast cells.\n(§5) Apoptosis of UM-SCC cell lines following (−)-gossypol treatment was quantitatively detected by enzymatic labeling of DNA strand breaks using terminal deoxynucleotidyltransferase (TdT) and Alexa Fluor-BrdUTP, known as the TdT-UTP nick end-labeling (TUNEL) assay by flow cytometry. Cells were exposed to (−)-gossypol for 48 hours, harvested, fixed and TUNEL stained according to the manufacturer's protocol (Molecular Probes Inc., Eugene, Oreg.). Ten thousand cells were analyzed per sample using excitation of Alexa Fluor at 488 nm. Apoptotic index (AI) was defined as percent of apoptotic cells in the treatment population minus that in the vehicle control population."}, "UM-SCC-23": {"system": "UM-SCC-23", "experiment": "6-day MTT cell growth, UM-SCC-23", "assay_type": "cell-based, human", "settings": "read-out: IC50, inhibition of cell growth", "procedure": "as §1, §2, §3"}, "[2]": {"system": "human breast cancer MDA-MB-231 (2LMP) xenograft", "settings": "Table 8"}, "Bcl-XL": {"target": "T1, Bcl-XL (Homo sapiens, UniProt Q07817, DEL45-84)", "T1 construct": "His-tag (N); made in house", "T1 sequence (Q07817 with tags, fused parts or gaps DEL45-84 limits assumed)": "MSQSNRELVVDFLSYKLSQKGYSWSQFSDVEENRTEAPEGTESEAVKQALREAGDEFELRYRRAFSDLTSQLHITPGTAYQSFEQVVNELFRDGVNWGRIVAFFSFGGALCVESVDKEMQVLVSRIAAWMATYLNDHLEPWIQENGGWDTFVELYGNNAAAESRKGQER", "experiment": "FP binding assay, Flu-Bid 21-residue peptide and Bcl-XL (FIG. 5, 46)"}, "UM-SCC-1": {"system": "UM-SCC-1", "experiment": "Flow cytometric TUNEL apoptosis assay, UM-SCC-1", "assay_type": "cell-based, human", "settings": "10 μM, 48-hour", "procedure": "as §4, §5"}, "[3]": {"system": "MCF-7 breast cancer cell line", "experiment": "Growth inhibition with TAXOL in fixed ratio, MCF-7", "assay_type": "cell-based, human", "settings": "combinations in a fixed ratio to TAXOL"}, "[4]": {"system": "PC-3 prostate cancer cell line", "experiment": "Annexin V-FITC/PI apoptosis with TXT or CDDP, PC-3", "assay_type": "cell-based, human", "settings": "PC-3, 48 hrs", "from_the_text": "(§6) The present invention is not limited to any mechanism. Indeed, a mechanistic understanding of the invention is unnecessary to practice (make and use) the present compositions and methods."}, "UM-SCC-14A [5]": {"system": "UM-SCC-14A", "experiment": "6-day MTT cell growth, UM-SCC-14A", "assay_type": "cell-based, human", "settings": "read-out: IC50, inhibition of cell growth", "procedure": "as §1, §2, §3"}, "[6]": {"system": "normal human fibroblast WI-38 cells", "experiment": "MTT-based 5-day cell proliferation, WI-38", "settings": "WI-38, FIG. 42", "from_the_text": "as §6"}, "UM-SCC-14A [7]": {"system": "UM-SCC-14A", "experiment": "Flow cytometric TUNEL apoptosis assay, UM-SCC-14A", "assay_type": "cell-based, human", "settings": "10 μM, 48-hour", "procedure": "as §4, §5"}, "PARP protein": {"system": "PARP protein", "experiment": "PARP protein cleavage", "assay_type": "cell-based", "settings": "compared under identical doses"}, "[8]": {"system": "A549 non-small cell lung carcinoma xenograft", "experiment": "A549 non-small cell lung carcinoma xenograft, (−)-gossypol with paclitaxel", "settings": "Table 13; combinations of G- with paclitaxel at 7.5 mg/kg"}, "UM-SCC-74B": {"system": "UM-SCC-74B", "experiment": "6-day MTT cell growth, UM-SCC-74B", "assay_type": "cell-based, human", "settings": "read-out: IC50, inhibition of cell growth", "procedure": "as §1, §2, §3"}, "UM-SCC-25": {"system": "UM-SCC-25", "experiment": "6-day MTT cell growth, UM-SCC-25", "assay_type": "cell-based, human", "settings": "read-out: IC50, inhibition of cell growth", "procedure": "as §1, §2, §3"}, "MDA-MB-231 cells": {"system": "MDA-MB-231 cells", "experiment": "5 day MTT cell growth assay, MDA-MB-231", "assay_type": "cell-based, human", "settings": "breast cancer cell lines with high levels of Bcl-XL, FIG. 12", "protocol": "For example, the ability of gossypol compounds to inhibit MDA-MB-231 cell growth was tested in a 5 day MTT assay.\nCells were seeded in 24 or 96-well-plates and gossypol compounds were prepared at 2-10 fold dilutions in suitable medium. Inhibition of cell viability was determined by treating the cells with the gossypol compounds for 24 hrs. […] Inhibition of cell growth was determined by treating cells with gossypol compounds for 3-6 days. […] In some embodiments, MTT assays are used to determine cell inhibition.\nAbsorbance at 540 nm is used to measure the amount of formazan product."}, "[9]": {"system": "androgen independent prostate cancer PC-3 xenograft", "experiment": "PC-3 xenograft, (−)-gossypol alone and with docetaxel (Example 22)", "settings": "for complete tumor regression, number of mice: combination of (−)-gossypol with docetaxel"}, "UM-SCC-12": {"system": "UM-SCC-12", "experiment": "Flow cytometric TUNEL apoptosis assay, UM-SCC-12", "assay_type": "cell-based, human", "settings": "10 μM, 48-hour", "procedure": "as §4, §5"}, "UM-SCC-6 [10]": {"system": "UM-SCC-6", "experiment": "Flow cytometric TUNEL apoptosis assay, UM-SCC-6", "assay_type": "cell-based, human", "settings": "10 μM, 48-hour", "procedure": "as §4, §5"}, "HNSCC cell lines": {"system": "HNSCC cell lines", "experiment": "6-day MTT cell survival, mean over HNSCC cell lines", "assay_type": "cell-based, human"}, "UM-SCC-22A": {"system": "UM-SCC-22A", "experiment": "6-day MTT cell growth, UM-SCC-22A", "assay_type": "cell-based, human", "settings": "read-out: IC50, inhibition of cell growth", "procedure": "as §1, §2, §3"}, "DU145": {"system": "DU145", "experiment": "MTT-based 5-day cell proliferation, DU145", "settings": "DU145, FIG. 42", "from_the_text": "as §6"}, "[11]": {"system": "Fib-3 (fibroblast cell line 3)", "experiment": "6-day MTT cell growth, Fib-3", "assay_type": "cell-based, human", "settings": "read-out: IC50, inhibition of cell growth", "procedure": "as §1, §2, §3"}, "[12]": {"settings": "(−)-gossypol 7.5 mg/kg p.o. daily 4 weeks, docetaxel 7.5 mg/kg once a week 3 weeks"}}, "note": "Where “and” joins values, the source holds several entries; their conditions need not be identical. Equal values may be shown once. Read-outs that look alike come from different tables or passages of the source.", "data": [{"smiles": "Cc1cc2c(C(C)C)c(O)c(O)c(C=O)c2c(O)c1-c1c(C)cc2c(C(C)C)c(O)c(O)c(C=O)c2c1O", "note": "[(−)-gossypol]", "values": [{"measurement": "IC50", "setting": "UM-SCC-6 [1]", "value": 11, "unit": "µM"}, {"measurement": "induction of apoptosis", "setting": "fibroblast cell lines", "value": "no induction of apoptosis"}, {"measurement": "IC50", "setting": "UM-SCC-23", "value": 1.5, "unit": "µM"}, {"measurement": "tumor growth inhibition", "setting": "[2]; (−)-gossypol 7.5 mg/kg p.o. in combination with docetaxel 7.5 mg/kg i.v., p < 0.01", "value": "there was more than 90% tumor"}, {"measurement": "tumor growth inhibition", "setting": "[2]; (−)-gossypol 30 mg/kg p.o. q day for 4 weeks, alone", "value": "30 mg/kg of G-, there was 40%"}, {"measurement": "anti-tumor effect", "setting": "[2]; (−)-gossypol 15 or 7.5 mg/kg p.o. alone", "value": "did not achieve significant anti-"}, {"measurement": "tumor growth inhibition", "setting": "[2]; (−)-gossypol at any of the three doses (7.5, 15, 30 mg/kg p.o.) in combination with docetaxel 7.5 mg/kg i.v.", "value": "all achieved significant tumor"}, {"measurement": "tumor regression, number of mice", "setting": "[2]; (−)-gossypol in combination with docetaxel, 8 mice per group", "value": "There was tumor regression in 3 mice"}, {"measurement": "inhibition of tumor growth by (−)-gossypol alone", "setting": "[2]; MDA-231 fat-pad xenografts, Balb/c nude mouse, 7.5, 15 or 30 mg/kg p.o. q day for 4 weeks, alone", "value": "There was dose-dependent"}, {"measurement": "inhibition of binding between Bad BH3 peptide and Bcl-XL", "setting": "Bcl-XL", "value": "directly inhibit binding between Bad BH3 peptide and Bcl-XL"}, {"measurement": "apoptotic index (AI)", "setting": "UM-SCC-1", "value": 90.1, "unit": "%"}, {"measurement": "IC50", "setting": "[3]", "value": 8.71, "unit": "µM"}, {"measurement": "effect on activity of docetaxel and cisplatin", "setting": "[4]", "value": "enhanced the activities of docetaxel and cisplatin (CDDP) in inhibiting cell growth and inducing apoptosis"}, {"measurement": "IC50", "setting": "UM-SCC-14A [5]", "value": 11, "unit": "µM"}, {"measurement": "cytotoxicity", "setting": "[6]", "value": "very limited effect"}, {"measurement": "apoptotic index (AI)", "setting": "UM-SCC-14A [7]", "value": 14.1, "unit": "%"}, {"measurement": "cleavage of PARP protein", "setting": "PARP protein", "value": "more cleavage of PARP protein"}, {"measurement": "tumor growth inhibition compared with vehicle control", "setting": "[8]", "value": "76% tumor growth inhibition as"}, {"measurement": "IC50", "setting": "UM-SCC-74B", "value": 4, "unit": "µM"}, {"measurement": "IC50", "setting": "UM-SCC-25", "value": 8, "unit": "µM"}, {"measurement": "potency in inhibition of cell growth relative to (+)-gossypol, first statement", "setting": "MDA-MB-231 cells", "value": 2, "unit": "times"}, {"measurement": "potency in inhibition of cell growth relative to (+)-gossypol, second statement", "setting": "MDA-MB-231 cells", "value": "5-10 times"}, {"measurement": "Complete tumor regression/Total", "setting": "[9]; [12]", "value": "2 out of 12 and 2/12"}, {"measurement": "Percent regression", "setting": "[9]; [12]", "value": 17, "unit": "%"}, {"measurement": "tumor growth inhibition compared with vehicle control", "setting": "[9]; Table 9, (−)-gossypol 15 mg/kg p.o. in combination with docetaxel 7.5 mg/kg i.v.", "value": "84% tumor growth inhibition as"}, {"measurement": "tumor growth inhibition on day 42", "setting": "[9]; Table 9, PC-3 flank xenografts (~100 mm^3 at start), NCr-nu nude mouse, 15 mg/kg daily p.o., alone", "value": "growth inhibition (52% on day 42,"}, {"measurement": "complete tumor regression, number of mice", "setting": "[9]; Table 9, out of 5 mice", "value": "complete tumor regression in 3 out mice"}, {"measurement": "tumor inhibition compared with vehicle control", "setting": "[9]; Table 10, (−)-gossypol in combination with docetaxel 7.5 mg/kg i.v.", "value": "at 7.5 mg/kg achieved 89.9% tumor"}, {"measurement": "tumor growth inhibition on day 56 compared to vehicle controls", "setting": "[9]; Table 10, PC-3 flank xenografts (~120 mm^3 at start), NCr-nu nude mouse, daily p.o. for 28 days, alone (racemic 15 mg/kg)", "value": "antitumor activity (60% on day 56,"}, {"measurement": "complete tumor regression, number of mice", "setting": "[9]; Table 10, out of 8 mice", "value": "complete tumor regression in 5 out mice"}, {"measurement": "apoptotic index (AI)", "setting": "UM-SCC-12", "value": 27.2, "unit": "%"}, {"measurement": "apoptotic index (AI)", "setting": "UM-SCC-6 [10]", "value": 80.3, "unit": "%"}, {"measurement": "IC50", "setting": "HNSCC cell lines", "value": "5.57 ± 2.57", "unit": "µM"}, {"measurement": "IC50", "setting": "UM-SCC-22A", "value": 3, "unit": "µM"}, {"measurement": "cytotoxicity", "setting": "DU145", "value": "very limited effect"}, {"measurement": "IC50", "setting": "[11]", "value": 18, "unit": "µM"}]}]}
